Marks after values point to notes of the source that are not given here.
Assays:
[1] = test system: podocytes; test: Nephrin expression in podocytes under glucose and angiotensin II stimuli (western blot); type: cell-based; conditions: 10 nM, 72 hours, 30 mM glucose and 100 nM angiotensin II, FIG. 18
Protocol: Effects of DA1229, linagliptin, saxagliptin and sitagliptin on nephrin expression under stimuli of glucose and angiotensin II that are same to the stimulation occurring in diabetes were observed below.
Podocytes were cultured for 72 hours in media containing 30 mM of glucose, 100 nM of angiotensin II; and any one of 10 nM of DA1229, 10 nM of linagliptin, 1 nM of saxagliptin and 10 nM of sitagliptin. After that, the media were removed; cells were lysed; and changes of intracellularly expressed nephrin were measured through western blot by using polyclonal antibody (Santa Crúz, SC-19000.)

[2] = test system: db/db mice; test: Weight, food intake, water intake, fasting blood glucose, urine output, HbA1c and blood pressure in db/db mice; type: in vivo
Protocol: 6-week old mice were used. db/m mice were set as the non-diabetic control group (7 for each stage, n=28), and divided db/db mice into the diabetic group (7 for each stage, n=28) and DA1229 administration group (n=8). 0.3% (W/W, 300 mg/kg/day) of DA1229, a DPP-IV inhibitor, was mixed with feed and provided to the DA1229 administration group while only feed was provided to the diabetic group. Weight, food intake, water intake, fasting blood glucose, urine output, hemoglobin A1c value (HbA1c) and blood pressure (i.e. systolic blood pressure, SBP) of the non-diabetic control group (db/m control group) and the diabetic group (db/db) were measured at week 0, 4, 8 and 12 of administration; and that of the DA1229 administration group were measured at week 12. HbA1c was measured by using the DCA 2000+ (Bayer Healthcare, Wuppertal, Germany) Analyzer.

[3] = test system: db/db mice; test: Blood lipid concentration in db/db mice; type: in vivo; conditions: 12th week of administration, FIG. 4
Protocol: In diabetic patients, blood lipids are tend to be increased and lipids are tend to be deposited in liver (i.e. hepatic steatosis) due to failure of lipid metabolism. Following experiment has been conducted to confirm whether DA1229 improves lipid metabolism. […] Concentrations of lipids, that are total cholesterol, triglyceride, HDL-cholesterol and LDL-cholesterol, of plasma of the non-diabetic control group, the diabetic group and the DA1229 administration group were measured at 12th week of administration. Concentration of total cholesterol and triglyceride were measured by using a ELISA reader (Micro-Quant, Bio-Tek Instruments, Colmar, France) after using the GPO-Trinder kit (Sigma, St. Louis, Mo., USA); and HDL-cholesterol and LDL-cholesterol were measured by using a TBA-200FR NEO (Toshiba, Japan).

[4] = test system: db/db mice; test: Hepatic steatosis: H&E-stained liver sections; type: in vivo; conditions: 12th week of administration, FIG. 5
Description: Liver tissues collected from the non-diabetic control group, the diabetic group and the DA1229 administration group were sectioned by a microtome and embedded in paraffin after alcohol dehydration at 12th week of administration. These sections were stained by Hematoxylin-eosin, and then lipid deposition was observed by using a microscope (STM6-LM Olympus NDT Inc, USA) (see FIG. 5).

[5] = test system: db/db mice; test: Plasma creatinine by modified Jaffe method; type: in vivo
[6] = test system: db/db mice; test: Microalbuminuria: 24 h urinary albumin excretion by ELISA; type: in vivo; conditions: FIG. 6
Protocol: When diabetes is progressed, phenomena of renal glomeruli destruction and protein (albumin) excretion incur, and microalbuminuria is directed to a case when the amount of the excretion is small. Microalbuminuria is one of the initial indices of renal diseases, and the gomeruli destruction becomes more severe as diabetes progresses. Accordingly the amount of protein excretion will increase. […] Microalbuminuria was observed by measuring the amount of urinary excretion of albumin during 24 hours in the non-diabetic control group, the diabetic group and the DA1229 administration group at week 0, 4, 8 and 12 of administration. The amount of albumin excretion was measured by using a ELISA reader (Micro-Quant, Bio-Tek Instruments, Colmar, France) after using the ELISA kit (Shibayagi, Shibukawa, Japan).

[7] = test system: db/db mice; test: Histological evaluation of renal mesangial expansion (PAS staining); type: in vivo; conditions: 12th week of administration, FIG. 7
Description: Mesangial expansion incurs in kidney when renal destruction progresses in renal diseases. Therefore, glomerular mesangial expansion in the non-diabetic control group, the diabetic group and the DA1229 administration group was observed. […] Renal glomerular tissues were collected and sectioned by a microtome and embedded in paraffin after alcohol dehydration. The sections were stained by using PAS (periodic acid-Schiff); observed by using a microscope (STM6-LM Olympus NDT Inc, USA) (see FIG. 7B); and scored by a pathologist (see FIG. 7A.)

[8] = test system: db/db mice; test: Renal fibrosis: immunohistochemistry of TGF β1, Type IV collagen and PAI-1; type: in vivo; conditions: 12th week
Description: Renal glomerular tissues were collected and sectioned by a microtome and embedded in paraffin after alcohol dehydration. The sections were stained via immunohistochemistry; each of deposited TGF β1, Type IV collagen and PAI-1 in kidney was observed by using a microscope (STM6-LM Olympus NDT Inc, USA) (see FIG. 8); and degree and range of the staining were scored by a pathologist (see FIG. 9).

[9] = test system: db/db mice; test: Renal lipid metabolism: mRNA expression of ABCA1 and HMG-CoA reductase; type: in vivo; conditions: 12th week, FIGS. 11 and 12
[10] = test system: db/db mice; test: Urinary nephrin excretion by EIA, normalized by creatinine; type: in vivo; conditions: FIG. 13
Description: Nephrin is a protein expressed on cell membrane of podocyte which forms glomerular filtration membrane. Nephrin forms a filtration barrier by binding to adjacent podocyte. When proteinuria incurs due to glomerular damage, nephrin barrier is damaged because nephrin expression in podocyte decreases, and accordingly, urinary excretion of nephrin increases. Therefore, urinary excretion of nephrin and nephrin expression in kidney in the non-diabetic control group, the diabetic group and the DA1229 administration group were observed. […] It was then normalized by creatinine excretion, which is proportional to a volume of urination (measured by the modified Jaffe method) and shown in the left-hand side graph in FIG. 13.

[11] = test system: db/db mice; test: Renal nephrin expression by immunostaining; type: in vivo; conditions: FIG. 13
Description: Nephrin is a protein expressed on cell membrane of podocyte which forms glomerular filtration membrane. Nephrin forms a filtration barrier by binding to adjacent podocyte. When proteinuria incurs due to glomerular damage, nephrin barrier is damaged because nephrin expression in podocyte decreases, and accordingly, urinary excretion of nephrin increases. Therefore, urinary excretion of nephrin and nephrin expression in kidney in the non-diabetic control group, the diabetic group and the DA1229 administration group were observed. […] In addition, kidneys were isolated from each group; renal tissues were separated, immunostained with nephrin-specific antibody, and observed by using a microscope. Result is shown in right-hand side of FIG. 13. It is shown that observed nephrin was few in the diabetic group compared to the non-diabetic control group, but much in the DA1229 administration group.

[12] = test system: non-diabetic renal disease mouse model; test: Microalbuminuria and nephrin excretion in adriamycin (ADX) non-diabetic renal disease mouse model; type: in vivo, mice; conditions: for urinary excretion of albumin / urinary excretion of nephrin: ADX 13 mg/kg i.v. mice, vs control
Protocol: Non-diabetic renal diseases occurs via induction of glomerular podocyte damage when injecting adriamycin (hereinafter, ADX) that is an anti-cancer agent. Thirty mice at the age of 6 weeks were divided into 3 groups (n=10/group) after single intravenous injection of 13 mg/kg of ADX. For the first group, the administration of DA1229 was initiated immediately and maintained while renal disease incurred and developed. For the second group, administration of DA1229 was performed 3 weeks after single ADX injection, for the purpose of administering DA1229 after renal disease was progressed to some degree. The third group was set as a control group without any additional action. DA1229 was administered as a mixture with diet at 0.3% (W/W, 300 mg/kg/day) to the first and second groups. Only feed was provided to the control group. Microalbuminuria and nephrin excretion of each group were measured at 5th week of administration.

[13] = test system: db/db mice; test: Renal fibrosis: mRNA expression of TGF β1, Type IV collagen and PAI-1 by real-time PCR; conditions: 12th week, relative to β-actin, FIG. 10
[14] = DA1229 0.3% W/W in feed (300 mg/kg/day), wk 12, mean ± SEM
[15] = DA1229 administered for 12 weeks

N[C@@H](CC(=O)N1CCn2c(nnc2C(F)(F)F)C1)Cc1cc(F)c(F)cc1F [sitagliptin, reference compound]
nephrin expression in podocytes [1]: almost no difference compared to the group treated only with glucose and angiotensin II

CC(C)(C)OC[C@@H]1C(=O)NCCN1C(=O)C[C@H](N)Cc1cc(F)c(F)cc1F [DA1229, (R)-4-{(R)-3-amino-4-(2,4,5-trifluorophenyl)butanoyl}-3-(t-butoxymethyl)piperazin-2-one]
Daily Water Intake [2, 14]: 8.6 ± 0.4**^,# g
Fasting Blood Glucose [2, 14]: 466 ± 66 mg/dL
HbAlc [2, 14]: 8.58 ± 0.79 %
Urine Output [2, 14]: 1.07 ± 0.29 mL/day
fasting blood glucose compared to the diabetic group [2, 15]: markedly decreased
urine output compared to the diabetic group [2, 15]: no significant differences
water intake compared to the diabetic group [2, 15]: markedly decreased
plasma LDL-cholesterol concentration [3]: restored to the level of the non-diabetic control group
plasma total cholesterol concentration [3]: restored to the level of the non-diabetic control group
plasma triglyceride concentration [3]: restored to the level of the non-diabetic control group
lipid deposition of liver tissues [4]: restored to the level of the non-diabetic control group
Plasma Creatinine ([5]; DA1229 300 mg/kg/day in feed, wk 12, ± SEM): 29.0 ± 2.0 µmol/L
plasma creatinine compared to the diabetic group ([5]; wk 12): markedly decreased
microalbuminuria until 4th week [6]: not observed
amount of urinary excretion of albumin after 4th week ([6]; vs diabetic group): much smaller than that of the diabetic group
glomerular mesangial expansion [7]: improved to a level close to the non-diabetic control group
TGF β1 deposited in kidney (immunohistochemistry) ([8]; FIGS. 8A and 9): markedly decreased
Type IV collagen deposited in kidney (immunohistochemistry) ([8]; FIGS. 8B and 9): decreased to the level of the non-diabetic control group
PAI-1 deposited in kidney (immunohistochemistry) ([8]; FIGS. 8C and 9): decreased to the level of the non-diabetic control group
renal mRNA expression of ABCA1 [9]: markedly increased
renal mRNA expression of HMG-CoA reductase [9]: decreased to the level of the non-diabetic control group
content of nephrin in urine [10]: markedly decreased
nephrin observed in renal tissue (immunostaining) [11]: much
urinary excretion of albumin ([12]; first group: DA1229 300 mg/kg/day started with induction of renal disease, FIG. 14A): significantly decreased
urinary excretion of nephrin ([12]; first group: DA1229 300 mg/kg/day started with induction of renal disease, FIG. 14B): significantly decreased
urinary excretion of albumin ([12]; second group: DA1229 300 mg/kg/day started 3 weeks after ADX, FIG. 15A): significantly decreased
urinary excretion of nephrin ([12]; second group: DA1229 300 mg/kg/day started 3 weeks after ADX, FIG. 15B): significantly decreased
effect of decreasing albumin excretion over time ([12]; ADX mice, second group, FIG. 15): became more significant as time passed
nephrin expression in podocytes [1]: maintained equally to the control group
renal mRNA expression of PAI-1 [13]: markedly decreased
renal mRNA expression of TGF β1 [13]: markedly decreased
renal mRNA expression of Type IV collagen [13]: markedly decreased

From patent US10159667B2, “Composition containing a DPP-IV inhibitor for preventing or treating renal diseases” (DONG-A ST CO., LTD, priority 2013, dated 2018)
